{"source": "patent US20250051300A1", "about": "“GRAM-NEGATIVE SPECIFIC ANTIBIOTICS SPARING EFFECT ON GUT MICROBIOME” (THE BOARD OF TRUSTEES OF THE UNIVERSITY OF ILLINOIS, priority 2021, published 2025)", "key": {"E. cloacae ATCC 29893": {"tested_on": "E. cloacae ATCC 29893", "experiment": "Resistance frequency, large inoculum method", "assay_type": "cell-based, Enterobacter cloacae", "conditions": "wild-type E. cloacae ATCC 29893, 8×MIC", "procedure": "Selection of resistant mutants. Resistant mutants were selected using the large inoculum method. Briefly, E. coli BW25113, K. pneumoniae ATCC 27736, or E. cloacae ATCC 29893 (˜1.0×10^7 c.f.u.) was plated on 100-mm plates of Luria Bertani agar containing 8, 16, 32, or 64 μg/mL, lolamycin. For E. coli ΔtolC (JW5503), ˜1.0×10^7 c.f.u. was plated on 100-mm plates of Luria Bertani agar containing 0.063, 0.13, 0.25, 0.5 μg/mL lolamycin. Colonies were visible after incubating at 37° C. for 48 h. Resistant colonies were confirmed by growing colonies in selective media with the same concentration of lolamycin."}, "Bacillus anthracis": {"tested_on": "Bacillus anthracis", "experiment": "microbe, parasite or virus in culture", "assay_type": "cell-based"}}}
{"smiles": "Cc1cc(-c2c[nH]nc2-c2cccc(OCc3cccc(C#N)c3)c2)cc(C)n1", "note": "[Compound 12, 3-((3-(4-(2,6-dimethylpyridin-4-yl)-1H-pyrazol-3-yl)phenoxy)methyl)benzonitrile]", "values": [{"measurement": "resistance frequency", "setting": "E. cloacae ATCC 29893", "result": "5.2×10^−7"}, {"measurement": "MIC", "setting": "Bacillus anthracis", "result": "> 128", "unit": "µg/mL"}]}
